Experiments:
[1] = test system: vacuole-to-vacuole fusion; assay: in vitro vacuole-to-vacuole fusion assay; assay type: biochemical, Saccharomyces cerevisiae; conditions: for effect on in vitro vacuole-to-vacuole fusion (in words): added to standard reaction, Figs. 5, 7 A or data not shown; for effect on inter-vacuole fusion: Fig. 7 A
G-proteins = conditions: cited from earlier work; for stimulation of G-proteins in vitro: ref Oppi et al., 1992
isolated vacuoles = assay: microscopic in vitro fusion assay with CDCFDA-labeled vacuoles; design: species or system Saccharomyces cerevisiae; conditions: standard fusion reaction, 120 min; for vacuole fusion / morphology seen by fluorescence microscopy: 20 uM, Fig. 6 D, E, G, H

## Triton X-100
[1]; 0-30 ug/ml plus 20 uM mastoparan, Fig. 8
  influence on the inhibition of fusion by mastoparan: did not influence the effects of mastoparan on fusion
[1]; added at 0.01%, data not shown
  fusion in standard fusion reactions: no fusion could be observed
[1]; detergent control, up to highest concentration tested, 30 ug/ml, Fig. 8
  effect on vacuole fusion: did not inhibit vacuole fusion

## LNAKLKAIALALIK-NH2 [mas-PEP7]
[1]; 25C, 120 min
  effect on in vitro vacuole-to-vacuole fusion (in words): inactive in the fusion assay
G-proteins
  stimulation of G-proteins in vitro: do not stimulate G-proteins in vitro

## CO/C1=C\C(C)=C\[C@@H](C)[C@@H](O)[C@@H](C)C/C(C)=C/C=C/[C@H](OC)[C@@H]([C@@H](C)[C@@H](O)[C@H](C)[C@@]2(O)C[C@@H](O)[C@H](C)[C@@H](C(C)C)O2)OC1=O [bafilomycin Al]
[1]; 25C, 120 min
  effect on in vitro vacuole-to-vacuole fusion (in words): inhibited vacuole fusion in vitro
Isolated vacuoles
  vacuole fusion / morphology seen by fluorescence microscopy: blocked vacuole fusion

## NC[C@@H]1O[C@H](O[C@H]2[C@@H](O)[C@H](O[C@@H]3[C@@H](O)[C@H](N)C[C@H](N)[C@H]3O[C@H]3O[C@H](CN)[C@@H](O)[C@H](O)[C@H]3N)O[C@@H]2CO)[C@H](N)[C@@H](O)[C@@H]1O [Neomycin]
[1]; standard reaction, 25C, 120 min, Fig. 5 A
  concentration that blocks inter-vacuole fusion: 0.2 mM
Isolated vacuoles; 0.6 mM, Fig. 6 C
  vacuole fusion seen by fluorescence microscopy: blocked vacuole fusion

## NILALAKALIKALK-NH2 [mas-PEP8]
G-proteins
  stimulation of G-proteins in vitro: potent G-protein activators

## F [fluoride]
[1]; 25C, 120 min
  effect on in vitro vacuole-to-vacuole fusion (in words): inhibitory

## Nc1nc2c(ncn2[C@@H]2O[C@H](COP(=O)(O)OP(=O)(O)OP(O)(O)=S)[C@@H](O)[C@H]2O)c(=O)[nH]1 [GTP3,S, Guanosine 5'-0-(3-thiotriphosphate)]
Isolated vacuoles; 1.0 mM, Fig. 6 F
  vacuole fusion seen by fluorescence microscopy: fusion was largely inhibited

## LKIALNLKALIAAK-NH2 [MAS-PEP2]
[1]; 25C, 120 min
  effect on in vitro vacuole-to-vacuole fusion (in words): inactive in the fusion assay
G-proteins
  stimulation of G-proteins in vitro: do not stimulate G-proteins in vitro

## benzalkonium chloride [BAC]
[1]; alone in standard fusion assay, Fig. 8
  concentration of maximal inhibition of inter-vacuolar fusion: 10 #g/ml

## Lithium
[1]; 25C, 120 min
  effect on in vitro vacuole-to-vacuole fusion (in words): did not influence the fusion reactions

## N#CC(C#N)=NNc1cccc(Cl)c1 [CCCP, carbonyl cyanide m-chlorophenyl-hydrazone]
[1]; 25C, 120 min
  effect on in vitro vacuole-to-vacuole fusion (in words): inhibited vacuole fusion in vitro
Isolated vacuoles
  vacuole fusion / morphology seen by fluorescence microscopy: blocked vacuole fusion

## mastoparan
[1]; 25C, 120 min
  effect on in vitro vacuole-to-vacuole fusion (in words): inhibited

## INLQALALAALAQALL-NH2 [Mas7[Q4;Q11]]
[1]; both compounds added together, data not shown
  relief of the inhibition caused by mas7: did not relieve
[1]; concentrations up to 50 uM, standard reaction
  effect on inter-vacuole fusion: did not inhibit
[1]; very high concentration, 100 uM, standard reaction
  effect on inter-vacuole fusion: did inhibit
G-proteins; ref Higashijima, T., personal communication
  stimulation of G-proteins: does not stimulate G-proteins
Isolated vacuoles
  vacuole fusion / morphology seen by fluorescence microscopy: only a weak influence

Reference: article PMC2120106 (The Journal of Cell Biology, 1994)
